According to patent US20170007615A1, “Antibacterial Compounds” (priority 2014, published 2017):
Read-outs that look alike come from different tables or passages of the source.

Tests used:
[1] = tested on: E. coli drug resistant clinical isolates; experiment: Antibacterial activity (MIC) against drug resistant clinical isolates, alone and with PMBN; type: cell-based; conditions: for MIC: Escherichia coli, read-out: MIC Compound alone
[2] = tested on: A. baumannii drug resistant clinical isolates; experiment: as above; type: cell-based; conditions: for MIC: Acinetobacter baumannii, read-out: MIC Compound alone
E. cloaceae (ATCC 13047) = conditions: Table 6

CCNC(=O)Nc1nc2cc(-c3cnc(NS(=O)(=O)C(C)(C)C)nc3)cc(-c3ccc(C)cn3)c2s1 [Compound A-13, 1-[5-[2-(tert-Butylsulfonylamino)pyrimidin-5-yl]-7-(5-methyl-2-pyridyl)-1,3-benzothiazol-2-yl]-3-ethyl-urea]
≦0.008 μg/ml: MIC of Compound (μg/ml) in the presence of PMBN (128 μg/ml) ([1]; E. coli (NCTC13463))
0.25 µg/mL: MIC of Compound (μg/ml) in the presence of PMBN (128 μg/ml) (E. cloaceae (ATCC 13047))
16 µg/mL: MIC ([1]; E. coli (MMX 1312)) | MIC ([1]; E. coli (MMX 2232))
> 4 µg/mL: MIC ([1]; BAA200, E. coli (BAA200)) | MIC ([1]; NCTC13400, E. coli (NCTC13400)) | MIC ([1]; NCTC13462, E. coli (NCTC13462))
8 µg/mL: MIC ([1]; NCTC13476, E. coli (NCTC13476))
4 µg/mL: MIC ([1]; E. coli (MMX 5743)) | MIC ([1]; NCTC13352, E. coli (NCTC13352)) | MIC ([2]; A. baumannii (MMX 2585)) | MIC ([2]; A. baumannii (MMX 4405)) | MIC ([2]; A. baumannii (MMX 6331)) | MIC ([2]; NCTC13301, A. baumannii (NCTC13301)) | MIC ([2]; NCTC13422, A. baumannii (NCTC13422))
2 µg/mL: MIC ([1]; NCTC11954, E. coli (NCTC11954)) | MIC ([1]; NCTC13463, E. coli (NCTC13463)) | MIC ([2]; A. baumannii (MMX 2598)) | MIC ([2]; A. baumannii (MMX 2600)) | MIC ([2]; NCTC13303, A. baumannii (NCTC13303)) | MIC ([2]; NCTC13305, A. baumannii (NCTC13305)) | MIC ([2]; NCTC13421, A. baumannii (NCTC13421))
0.03 µg/mL: MIC of Compound (μg/ml) in the presence of PMBN (128 μg/ml) ([2]; A. baumannii (NCTC13302)) | MIC of Compound (μg/ml) in the presence of PMBN (128 μg/ml) ([2]; A. baumannii (NCTC13304)) | MIC of Compound (μg/ml) in the presence of PMBN (128 μg/ml) ([2]; A. baumannii (NCTC 13420)) | MIC of Compound (μg/ml) in the presence of PMBN (128 μg/ml) ([2]; A. baumannii (NCTC13421)) | MIC of Compound (μg/ml) in the presence of PMBN (128 μg/ml) ([2]; A. baumannii (NCTC13422)) | MIC of Compound (μg/ml) in the presence of PMBN (128 μg/ml) ([2]; A. baumannii (NCTC13424))
0.12 µg/mL: MIC of Compound (μg/ml) in the presence of PMBN (128 μg/ml) ([2]; A. baumannii (MMX 2585)) | MIC of Compound (μg/ml) in the presence of PMBN (128 μg/ml) ([2]; A. baumannii (MMX 4405)) | MIC of Compound (μg/ml) in the presence of PMBN (128 μg/ml) ([2]; A. baumannii (MMX 4454)) | MIC of Compound (μg/ml) in the presence of PMBN (128 μg/ml) ([2]; A. baumannii (NCTC13301)) | MIC of Compound (μg/ml) in the presence of PMBN (128 μg/ml) ([2]; A. baumannii (NCTC13305))
0.06 µg/mL: MIC of Compound (μg/ml) in the presence of PMBN (128 μg/ml) ([2]; A. baumannii (MMX 2598)) | MIC of Compound (μg/ml) in the presence of PMBN (128 μg/ml) ([2]; A. baumannii (MMX 2600)) | MIC of Compound (μg/ml) in the presence of PMBN (128 μg/ml) ([2]; A. baumannii (MMX 6331)) | MIC of Compound (μg/ml) in the presence of PMBN (128 μg/ml) ([2]; A. baumannii (NCTC13303))
≦0.12 μg/ml: MIC of Compound (μg/ml) in the presence of PMBN (128 μg/ml) ([1]; E. coli (NCTC13476))
1 µg/mL: MIC ([1]; NCTC13353, E. coli (NCTC13353)) | MIC ([2]; A. baumannii (MMX 4454)) | MIC ([2]; NCTC13302, A. baumannii (NCTC13302)) | MIC ([2]; NCTC13304, A. baumannii (NCTC13304)) | MIC ([2]; NCTC13420, A. baumannii (NCTC 13420)) | MIC ([2]; NCTC13424, A. baumannii (NCTC13424))
> 64 µg/mL: MIC ([1]; E. coli (MMX 5771)) | MIC ([1]; E. coli (MMX 6413)) | MIC ([1]; NCTC13351, E. coli (NCTC13351)) | MIC ([1]; NCTC13441, E. coli (NCTC13441)) | MIC ([1]; NCTC13450, E. coli (NCTC13450)) | MIC ([1]; NCTC13461, E. coli (NCTC13461))
